Source: patent publication US12319701B2, “Antagonists of the muscarinic acetylcholine receptor M4” (priority 2019, dated 2025)
pIC50: −log10 of the molar value.

Molecular target: T1, Human M4 (Homo sapiens, UniProt P08173)
T1 construct: expressed in transfected cells; host or cells: CHO-K1 (ATCC), stably co-expressing chimeric G protein Gqi5
T1 sequence (P08173 1-479): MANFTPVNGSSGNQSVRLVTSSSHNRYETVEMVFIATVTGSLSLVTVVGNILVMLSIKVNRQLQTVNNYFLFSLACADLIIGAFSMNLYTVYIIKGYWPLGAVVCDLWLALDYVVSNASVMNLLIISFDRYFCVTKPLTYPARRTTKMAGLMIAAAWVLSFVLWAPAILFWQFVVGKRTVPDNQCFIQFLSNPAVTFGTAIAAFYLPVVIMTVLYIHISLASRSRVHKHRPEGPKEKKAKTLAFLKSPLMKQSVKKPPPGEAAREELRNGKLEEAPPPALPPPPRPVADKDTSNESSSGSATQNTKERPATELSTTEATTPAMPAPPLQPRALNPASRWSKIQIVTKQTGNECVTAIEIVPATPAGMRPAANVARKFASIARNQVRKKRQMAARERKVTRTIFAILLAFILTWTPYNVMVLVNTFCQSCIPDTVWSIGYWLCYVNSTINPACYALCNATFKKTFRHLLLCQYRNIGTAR
Experiment: mAChR M4 cell-based functional assay (calcium flux, Fluo-4, M4/Gqi5/CHO-K1 cells)
Conditions: for remaining activity at 30 µM: CHO-K1, read-out: Human M4 Emin (%), % ACh maximum at 30 μM
Protocol: Human or rat M4 cDNA, along with the chimeric G protein Gqi5, were transfected into Chinese hamster ovary (CHO-K1) cells purchased from the American Type Culture Collection using Lipofectamine2000. M4/Gqi5/CHO cells were grown in Ham's F-12 medium containing 10% heat-inactivated fetal bovine serum (FBS), 20 mM HEPES, 500 μg/mL 418 sulfate, and 200 μg/mL Hygromycin B.
For high throughput measurement of agonist-evoked increases in intracellular calcium, CHO-K1 cells stably expressing muscarinic receptors were plated in growth medium lacking 418 and hygromycin at 15,000 cells/20 μL/well in Greiner 384-well black-walled, tissue culture (TC)-treated, clear-bottom plates (VWR). Cells were incubated overnight at 37° C. and 5% CO2. The next day, cells were washed using an ELX 405 (BioTek) with assay buffer; the final volume was then aspirated to 20 μL. Next, 20 μL of a 2.3 μM stock of Fluo-4/acetoxymethyl ester (Invitrogen, Carlsbad, CA), prepared as a 2.3 mM stock in DMSO and mixed in a 1:1 ratio with 10% (w/v) Pluronic F-127 and diluted in assay buffer, was added to the wells and the cell plates were incubated for 50 min at 37° C. and 5% CO2. Dye was removed by washing with the ELX 405 and the final volume was aspirated to 20 μL. Compound master plates were formatted in a 10 point concentration-response curve (CRC) format (1:3 dilutions) in 100% DMSO with a starting concentration of 10 or 1 mM using a BRAVO liquid handler (Agilent). Test compound CRCs were then transferred to daughter plates (240 nL) using the Echo acoustic plate reformatter (Labcyte, Sunnyvale, CA) and then diluted into assay buffer (40 μL) to a 2× stock using a Thermo Fisher Combi (Thermo Fisher Scientific, Waltham, MA).
Calcium flux was measured using the Functional Drug Screening System (FDSS) 6000 or 7000 (Hamamatsu Corporation, Tokyo, Japan) as an increase in the fluorescent static ratio. Compounds were applied to cells (20 μL, 2×) using the automated system of the FDSS at 2 seconds into the protocol and the data were collected at 1 Hz. At 143 s, 10 μL of an EC20 concentration of the muscarinic receptor agonist acetylcholine was added (5×), followed by the addition of 12 μL of an EC80 concentration of acetylcholine at the 268 s time point (5×). Agonist activity was analyzed as a concentration-dependent increase in calcium mobilization upon compound addition. Positive allosteric modulator activity was analyzed as a concentration-dependent increase in the EC20 acetylcholine response. Antagonist activity was analyzed as a concentration-dependent decrease in the ECK) acetylcholine response; for the purposes of the tables herein, an IC50 (inhibitory concentration 50) was calculated as a concentration-dependent decrease of the response elicited by an ECK) concentration of acetylcholine. Concentration-response curves were generated using a four-parameter logistical equation in XLFit curve fitting software (IDBS, Bridgewater, NJ) for Excel (Microsoft, Redmond, WA) or Prism (GraphPad Software, Inc., San Diego, CA) or the Dotmatics software platform (Dotmatics, Bishop's Stortford, UK).
Compounds were synthesized as described above. Activity (IC50 and Emin) was determined in the mAChR M4 cell-based functional assay as described above and the data are shown in Table 2.

## Cn1cc2cc(-c3nnc(N[C@H]4C[C@@H]5CN(CC6CCOCC6)C[C@@H]5C4)c4sccc34)ccc2n1 [compound 13, 4-(2-methyl-2H-indazol-5-yl)-N-((3aR,5s,6aS)-2-((tetrahydro-2H-pyran-4-yl)methyl)octahydrocyclopenta[c]pyrrol-5-yl)thieno[2,3-d]pyridazin-7-amine]
  pIC50: 9.16
  remaining activity at 30 µM: 3%

## Clc1nnc(N[C@H]2C[C@@H]3CN(CC4CCOCC4)C[C@@H]3C2)c2sccc12 [compound 12, 4-chloro-N-((3aR,5s,6aS)-2-((tetrahydro-2H-pyran-4-yl)methyl)octahydrocyclopenta[c]pyrrol-5-yl)thieno[2,3-d]pyridazin-7-amine]
  pIC50: 6.55
  remaining activity at 30 µM: 5%

## Cc1ccc(F)cc1-c1nnc(N[C@H]2C[C@@H]3CN(CC4CCOCC4)C[C@@H]3C2)c2ccsc12 [compound 3, 7-(5-fluoro-2-methylphenyl)-N-((3aR,5s,6aS)-2-((tetrahydro-2H-pyran-4-yl)methyl)octahydrocyclopenta[c]pyrrol-5-yl)thieno[2,3-d]pyridazin-4-amine]
  pIC50: 8.29
  remaining activity at 30 µM: 3%

## FC1(F)CCN(c2nnc(N[C@H]3C[C@@H]4CN(CC5CCOCC5)C[C@@H]4C3)c3ccsc23)CC1 [compound 20, 7-(4,4-difluoropiperidin-1-yl)-N-((3aR,5s,6aS)-2-((tetrahydro-2H-pyran-4-yl)methyl)octahydrocyclopenta[c]pyrrol-5-yl)thieno[2,3-d]pyridazin-4-amine]
  pIC50: 8.25
  remaining activity at 30 µM: 3%

## [2H]C([2H])(C1CCOCC1)N1C[C@H]2C[C@H](Nc3nnc(-c4cc(F)ccc4C)c4sccc34)C[C@H]2C1 [compound 19, 7-(5-fluoro-2-methylphenyl)-N-((3aR,5s,6aS)-2-((tetrahydro-2H-pyran-4-yl)methyl-d2)octahydrocyclopenta[c]pyrrol-5-yl)thieno[2,3-d]pyridazin-4-amine]
  pIC50: 8.85
  remaining activity at 30 µM: 3%

## FC1(F)CCN(c2nnc(N[C@H]3C[C@@H]4CN(CC5CCOCC5)C[C@@H]4C3)c3c2CCCC3)CC1 [compound 22, 4-(4,4-difluoropiperidin-1-yl)-N-((3aR,5s,6aS)-2-((tetrahydro-2H-pyran-4-yl)methyl)octahydrocyclopenta[c]pyrrol-5-yl)-5,6,7,8-tetrahydrophthalazin-1-amine]
  pIC50: 7.84
  remaining activity at 30 µM: 3%

## Fc1ccccc1-c1nnc(N[C@H]2C[C@@H]3CN(CC4CCOCC4)C[C@@H]3C2)c2c1CCCC2 [compound 24, 4-(2-fluorophenyl)-N-((3aR,5s,6aS)-2-((tetrahydro-2H-pyran-4-yl)methyl)octahydrocyclopenta[c]pyrrol-5-yl)-5,6,7,8-tetrahydrophthalazin-1-amine]
  pIC50: 8.21
  remaining activity at 30 µM: 3%

## Cc1ccc(C)c(-c2nnc(N[C@H]3C[C@@H]4CN(CC5CCOCC5)C[C@@H]4C3)c3ccsc23)c1 [compound 4, 7-(2,5-dimethylphenyl)-N-((3aR,5s,6aS)-2-((tetrahydro-2H-pyran-4-yl)methyl)octahydrocyclopenta[c]pyrrol-5-yl)thieno[2,3-d]pyridazin-4-amine]
  pIC50: 7.87
  remaining activity at 30 µM: 3%

## c1ccc(-c2nnc(N[C@H]3C[C@@H]4CN(CC5CCOCC5)C[C@@H]4C3)c3ccsc23)cc1 [compound 8, 7-phenyl-N-((3aR,5s,6aS)-2-((tetrahydro-2H-pyran-4-yl)methyl)octahydrocyclopenta[c]pyrrol-5-yl)thieno[2,3-d]pyridazin-4-amine]
  pIC50: 8.33
  remaining activity at 30 µM: 3%

## Fc1cccc(-c2nnc(N[C@H]3C[C@@H]4CN(CC5CCOCC5)C[C@@H]4C3)c3c2CCCC3)c1 [compound 25, 4-(3-fluorophenyl)-N-((3aR,5s,6aS)-2-((tetrahydro-2H-pyran-4-yl)methyl)octahydrocyclopenta[c]pyrrol-5-yl)-5,6,7,8-tetrahydrophthalazin-1-amine]
  pIC50: 8.04
  remaining activity at 30 µM: 3%

## Cc1ccccc1-c1nnc(N[C@H]2C[C@@H]3CN(CC4CCOCC4)C[C@@H]3C2)c2ccsc12 [compound 5, N-((3aR,5s,6aS)-2-((tetrahydro-2H-pyran-4-yl)methyl)octahydrocyclopenta[c]pyrrol-5-yl)-7-(o-tolyl)thieno[2,3-d]pyridazin-4-amine]
  pIC50: 8.61
  remaining activity at 30 µM: 4%

## COc1ccccc1-c1nnc(N[C@H]2C[C@@H]3CN(CC4CCOCC4)C[C@@H]3C2)c2ccsc12 [compound 6, 7-(2-methoxyphenyl)-N-((3aR,5s,6aS)-2-((tetrahydro-2H-pyran-4-yl)methyl)octahydrocyclopenta[c]pyrrol-5-yl)thieno[2,3-d]pyridazin-4-amine]
  pIC50: 5.09
  remaining activity at 30 µM: 20%

## Cc1ccc(F)cc1-c1nnc(N[C@H]2C[C@@H]3CN(CC4CCOCC4)C[C@@H]3C2)c2sccc12 [compound 11, 4-(5-fluoro-2-methylphenyl)-N-((3aR,5s,6aS)-2-((tetrahydro-2H-pyran-4-yl)methyl)octahydrocyclopenta[c]pyrrol-5-yl)thieno[2,3-d]pyridazin-7-amine]
  pIC50: 8.80
  remaining activity at 30 µM: 3%

## Fc1ccc(-c2nnc(N[C@H]3C[C@@H]4CN(CC5CCOCC5)C[C@@H]4C3)c3c2CCCC3)cc1 [compound 26, 4-(4-fluorophenyl)-N-((3aR,5s,6aS)-2-((tetrahydro-2H-pyran-4-yl)methyl)octahydrocyclopenta[c]pyrrol-5-yl)-5,6,7,8-tetrahydrophthalazin-1-amine]
  pIC50: 7.23
  remaining activity at 30 µM: 3%

## Cn1cc2cc(-c3nnc(N[C@H]4C[C@@H]5CN(CC6CCOCC6)C[C@@H]5C4)c4ccsc34)ccc2n1 [compound 9, 7-(2-methyl-2H-indazol-5-yl)-N-((3aR,5s,6aS)-2-((tetrahydro-2H-pyran-4-yl)methyl)octahydrocyclopenta[c]pyrrol-5-yl)thieno[2,3-d]pyridazin-4-amine]
  pIC50: 8.53
  remaining activity at 30 µM: 3%

## Clc1nnc(N[C@H]2C[C@@H]3CN(CC4CCOCC4)C[C@@H]3C2)c2ccsc12 [compound 1, 7-chloro-N-((3aR,5s,6aS)-2-((tetrahydro-2H-pyran-4-yl)methyl)octahydrocyclopenta[c]pyrrol-5-yl)thieno[2,3-d]pyridazin-4-amine]
  pIC50: 6.69
  remaining activity at 30 µM: 3%

## Fc1ccc(F)c(-c2nnc(N[C@H]3C[C@@H]4CN(CC5CCOCC5)C[C@@H]4C3)c3sccc23)c1 [compound 10, 4-(2,5-difluorophenyl)-N-((3aR,5s,6aS)-2-((tetrahydro-2H-pyran-4-yl)methyl)octahydrocyclopenta[c]pyrrol-5-yl)thieno[2,3-d]pyridazin-7-amine]
  pIC50: 8.20
  remaining activity at 30 µM: 4%

## Fc1ccc(F)c(-c2nnc(N[C@H]3C[C@@H]4CN(CC5CCOCC5)C[C@@H]4C3)c3ccsc23)c1 [compound 2, 7-(2,5-difluorophenyl)-N-((3aR,5s,6aS)-2-((tetrahydro-2H-pyran-4-yl)methyl)octahydrocyclopenta[c]pyrrol-5-yl)thieno[2,3-d]pyridazin-4-amine]
  pIC50: 8.54
  remaining activity at 30 µM: 3%
